This is an account of results in US20140096967A1, “SALT-TOLERANT ANIONIC SURFACTANT COMPOSITIONS FOR ENHANCED OIL RECOVERY (EOR) APPLICATIONS” (Board of Regents, The University of Texas System, priority 2012, published 2014).

Read-outs that look alike come from different tables or passages of the source. Marks after values point to notes of the source that are not given here.

For data set [1] the following is noted: conventional sodium alkylsulfates; data from O'Lenick; cited from earlier work.
The conditions of data set [2]: data from Mukerjee et al. (1971), cited from earlier work.
Data set [3] is described as follows: Static adsorption test on disaggregated Berea sandstone core particles. It is filed as physicochemical. The conditions noted are these: 10,000 mg/L NaCl, LSR of 40, 12 hrs. equilibration at 25° C. (FIG. 19). The source says:
Static Adsorption Tests. A static adsorption test was used for measuring surfactant adsorption at solid-water interfaces. The procedures were adopted from the study by Hanna et al. (1977). The adsorbents used for static adsorption tests were particles disaggregated from a Berea sandstone core and sieved through a 60 mesh screen ([…]). The use of 60 mesh screen is based on the consideration that a wider and thus more representative range of particle sizes could be included. The adsorbent grains were heated in the oven overnight and cooled in a desiccator over Drierite™ before use. The surfactant concentration was measured by Total Organic Carbon (TOC) method, which represents the amount of total carbon in the sample. […] The amount of surfactant adsorbed was determined by measuring different concentrations in the solution before and after contact with the adsorbents,
Where Γ (mg/g) is the surfactant adsorption density on the adsorbents; Co and C (mg/L) are surfactant concentrations before and after adsorption tests; V (ml) is the volume of surfactant solution used in the test, and M (gram) is the mass of the adsorbents used in the test. A dimensionless quantity θ can be defined as follows: […]
Equilibrium Adsorption Time. To ensure true equilibrium adsorption, the progression of 16-4-16 adsorption level with time was recorded to identify a suitable duration for equilibration. […]

For `CCCCCCCCCCCCOS(=O)(=O)[O-].[Na+]` [C12—SO4^− Na^+], in data set [1], the “Krafft Point” value is given as 16* ° C. The CMC is on record as 8230** 10^−3 mmol/L in data set [2] (30° C.), 8600** 10^−3 mmol/L in data set [2] (40° C.) and 10160** 10^−3 mmol/L in data set [2] (60° C.).
With `CCCCCCCCCCCCCCOS(=O)(=O)[O-].[Na+]` [C14—SO4^− Na^+], in data set [1], the “Krafft Point” value is 28* ° C. The CMC is 2080** 10^−3 mmol/L in data set [2] (30° C.), 2210** 10^−3 mmol/L in data set [2] (40° C.) and 2770** 10^−3 mmol/L in data set [2] (60° C.).
Take `CCCCCCCCCCCCCCCCOS(=O)(=O)[O-].[Na+]` [C16—SO4^− Na^+, sodium hexadecyl sulfate]: the “maximum adsorption density, trend among surfactants” value in data set [3] is 16-4-16<SHS<S13-C. Also, in data set [1], the “Krafft Point” value is 45* ° C. For the same molecule, the CMC in data set [2] (40° C.) is given as 580** 10^−3 mmol/L.
